Measurements taken from patent US20030130698A1, “Method for screening therapeutic agents for modulation of ejaculatory response” (priority 2002, published 2003).

What was measured:
[1] = test system: male mice; test: Electroejaculation test after oral administration of diarylmethylpiperazine compounds (35 Hz, 3 to 8 volts); assay type: in vivo, mouse; conditions: for Effective Dose: oral administration, stimulation about 20 minutes after dosing, 3 to 8 volts in 0.5 volt increments; for Ejaculation Inhibition %: relative to control group, at the effective dose of the same line, oral, about 20 minutes after dosing, 3 to 8 volts
Experimental: (§1) Male, CD-1 mice (20-30 g) were housed in groups of ten (10) in Plexiglas® chambers with food and water available before any procedure. Animals were maintained on a 12 hour light/dark cycle in a temperature-controlled animal colony. Studies were carried out in accordance with the Guide for the Care and Use of Laboratory animals as adopted and promulgated by the National Institutes of Health.
(§2) Specifically, the bipolar electrode probe is an approximately 5 cm long tube having an outer diameter of approximately 0.2388 cm with an inner diameter of approximately 0.0787 cm and a wall thickness of […].
A testing mouse was restrained in a cone bag with rear legs extending from the bag. Excess fecal matter was removed from the rectum and a lubricated bipolar electrode was inserted approximately […] into the rectum. An oscillating current of 40 Hz was utilized for electrical stimulation starting at 3 volts with a gradual increase to 8 volts by increments of 0.5 volts, as shown in Table 1. The stimulation regime included 4 stimulating events for each voltage lasting 2 seconds with a rest period of 2 seconds between stimulating events. A white coagulum ejaculate from the penis indicated a successful ejaculation. If ejaculation occurred before reaching the 8 volt terminal voltage, the testing was stopped.
Further testing was conducted on a multiple diarylmethylpiperazine compounds according to the testing procedure setforth above wherein the stimulating protocol comprised multiple operating cycles of alternating stimulation periods and rest periods during which the operating voltage of each operating cycle increased in comparison with that of the immediately preceding operating cycle. Electroejaculation stimulation was conducted at 35 Hz oscillating frequency, starting at 3 volts with a gradual increase to 8 volts by increments of 0.5 volts and occurred about 20 minutes after oral administration. The results, showing ejaculation inhibition relative to that of the control group, are compiled in Table 2.

[2] = test system: mouse vas deferens smooth muscle; conditions: in vitro; cited from earlier work
[3] = target: delta opioid receptor (Homo sapiens, UniProt P41143); conditions: delta opioid receptor agonist versus mu opioid receptors; cited from earlier work
[4] = test system: male mice; test: Electroejaculation test after subcutaneous SNC-80 (40 Hz, 3 to 8 volts); assay type: in vivo, mouse; conditions: terminal voltage 8 volts, FIG. 3
Experimental: as §1, §2
SNC-80 was dissolved in 5% dextrose injection solution. Equal molar of HCL was added when the manufacturer packaged the compound in a base form. The placebo was prepared in a similar manner without the test drug 10 minutes after the injection, the test mouse was subjected to electrostimulation. Ten mice were tested for each dose level, the order of each mouse receiving different doses was blinded and in a random manner.
A testing mouse was restrained in a cone bag with rear legs extending from the bag. Excess fecal matter was removed from the rectum and a lubricated bipolar electrode was inserted approximately 2.5 into the rectum. […]

Sequence of delta opioid receptor (P41143 whole entry): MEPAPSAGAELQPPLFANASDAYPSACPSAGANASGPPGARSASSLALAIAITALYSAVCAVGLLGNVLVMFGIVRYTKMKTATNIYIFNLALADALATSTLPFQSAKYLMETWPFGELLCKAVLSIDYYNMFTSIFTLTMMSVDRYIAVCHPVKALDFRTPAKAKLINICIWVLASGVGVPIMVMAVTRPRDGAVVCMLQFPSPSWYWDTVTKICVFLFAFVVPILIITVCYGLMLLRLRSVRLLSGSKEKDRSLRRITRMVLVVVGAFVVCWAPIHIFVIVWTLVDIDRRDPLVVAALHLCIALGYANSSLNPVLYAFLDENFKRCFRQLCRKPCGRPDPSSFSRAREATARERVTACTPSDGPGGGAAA

For `C=CCN1C[C@H](C)N([C@H](c2ccc(C(=O)N(CC)CC)cc2)c2cccc(OCC(=O)O)c2)C[C@H]1C` [3-((alpha-R)-alpha-((2S,5R)-4-Allyl-2,5-dimethyl-1-piperazinyl)-4-(diethylamino-carbonyl)benzyl)phenoxyacetic acid], the “Effective Dose” value [1] was 0.01 mg/kg and the “Ejaculation Inhibition %” value [1] was 45%.
For `C=CCN1C[C@H](C)N([C@H](c2ccc(C(=O)N(CC)CC)cc2)c2cccc(OC)c2)C[C@H]1C` [SNC-80, (+)-4-[(αR)-α-((2S,5R)-4-Allyl-2,5-dimethyl-1-piperazinyl)-3-methoxybenzyl]-N,N-diethyl benzamide], the “contraction of mouse vas deferens smooth muscle” value [2] is listed as “block the contraction”, the “selectivity over mu opioid receptors” value [3] is listed as 2000 fold and the “inhibitory effect on ejaculation at reduced dose” value ([4]; 0.1 mg/kg subcutaneous) is listed as “inhibitory effect diminished”. For the same compound, the “occurrence of ejaculation compared to control group” value ([4]; 1 mg/kg subcutaneous) was “significantly reduced the occurrence of ejaculation”.
In the case of `CCN(CC)C(=O)c1ccc([C@H](c2cccc(OC)c2)N2C[C@@H](C)N(Cc3ccccc3F)C[C@@H]2C)cc1` [4-((alpha-R)-alpha-((2S,5R)-2,5-Dimethyl-4-(2-fluorobenzyl)-1-piperazinyl)-3-methoxybenzyl)-N,N-diethylbenzamide], the “Effective Dose” value [1] is reported as 10 mg/kg and the “Ejaculation Inhibition %” value [1] is reported as 50%.
With `CCN(CC)C(=O)c1ccc([C@H](c2ccccc2)N2C[C@@H](C)N(Cc3ccc(O)cc3)C[C@@H]2C)cc1` [4-((alpha-S)-alpha-((2S,5R)-2,5-Dimethyl-4-(4-hydroxybenzyl)-1-piperazinyl)-benzyl)-N,N-diethylbenzamide] the “Effective Dose” value [1] was 3 mg/kg and the “Ejaculation Inhibition %” value [1] was 50%.
With `CCN(CC)C(=O)c1ccc([C@H](c2cccc(OC)c2)N2C[C@@H](C)N(Cc3ccc(F)cc3)C[C@@H]2C)cc1` [4-((alpha-R)-alpha-((2S,5R)-2,5-Dimethyl-4-(4-fluorobenzyl)-1-piperazinyl)-3-methoxybenzyl)-N,N-diethylbenzamide] the “Effective Dose” value [1] was 3 mg/kg and the “Ejaculation Inhibition %” value [1] was 38%.
With `C=CCN1C[C@@H](C)N([C@H](c2ccc(S(=O)(=O)N(C)C)cc2)c2cccc(O)c2)C[C@@H]1C` [4-[(R)-((2R,5S)-4-Allyl-2,5-diimethylpiperazin-1-yl)(3-hydroxyphenyl)methyl]-N,N-dimethylbenzenesulfonamide] the “Effective Dose” value [1] was 0.3 mg/kg and the “Ejaculation Inhibition %” value [1] was 50%.
With `CCN(CC)C(=O)c1ccc([C@@H](c2ccccc2)N2C[C@H](C)N(Cc3cccc(F)c3)C[C@H]2C)cc1` [4-((alpha-R)-alpha-((2R,5 S)-2,5-Dimethyl-4-(3-fluorobenzyl)-1-piperazinyl)benzyl)-N,N-diethylbenzamide] the “Effective Dose” value [1] was 0.4 mg/kg and the “Ejaculation Inhibition %” value [1] was 75%.
For `CCN(CC)C(=O)c1ccc([C@H](c2cccc(OC)c2)N2C[C@@H](C)N(Cc3ccccc3)C[C@@H]2C)cc1` [4-(alpha-R)-alpha-((2S,5R)-4-Benzyl-2,5-dimethyl-1 piperazinyl)-3-methoxybenzyl)-N,N-diethylbenzamide], the “Effective Dose” value [1] was 3 mg/kg and the “Ejaculation Inhibition %” value [1] was 33%.
With `CCN(CC)C(=O)c1ccc([C@H](c2cccc(O)c2)N2C[C@@H](C)N(CC3CC3)C[C@@H]2C)cc1` [4-(alpha-R)-alpha-((2S,5R)-4-(Cyclopropylmethyl)-2,5-dimethyl-1-piperazinyl)-3-hydroxybenzyl)-N,N-diethylbenzamide] the “Effective Dose” value [1] was 0.3 mg/kg and the “Ejaculation Inhibition %” value [1] was 60%.
With `CCN(CC)C(=O)c1ccc([C@H](c2cccc(OCC(=O)O)c2)N2C[C@@H](C)N(Cc3ccccc3)C[C@@H]2C)cc1` [3-((alpha-R)-alpha-((2S,5R)-4-Benzyl-2,5-dimethyl-1-piperazinyl)-4-(diethylaminocarbonyl)benzyl)phenoxyacetic acid] the “Effective Dose” value [1] was 3 mg/kg and the “Ejaculation Inhibition %” value [1] was 66%.
For `CCN(CC)C(=O)c1ccc([C@H](c2cccc(O)c2)N2C[C@@H](C)N(Cc3cccc(F)c3)C[C@@H]2C)cc1` [4-((alpha-R)-alpha-((2S,5R)-2,5-Dimethyl-4-(3-fluorobenzyl)-1-piperazinyl)-3-hydroxybenzyl)-N,N-diethylbenzamide], the “Effective Dose” value [1] was 3 mg/kg and the “Ejaculation Inhibition %” value [1] was 60%.
